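Dose response: 5 concentrations. Exposure: 48 h. Format: 96-well plates. Endpoint: linear interpolation; highest concentration if not reached. GI50 is the concentration that inhibits growth by half. At the TGI there is no net growth.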

Test systems include NCI-H226 lung; ACHN renal; MDA-MB-231 breast; IGROV1 ovarian; MOLT-4 leukemia; RPMI-8226 leukemia; U251 CNS; EKVX NSCLC; HCT-15 colon; KM12 colon.
Holding throughout (assay): NCI tumour cell line growth inhibition, 48 h

For the molecule `C=Cn1c([N+](=O)[O-])cnc1/C=C/c1ccc(C(=O)OCCN2CCOCC2)cc1`, the TGI was over 100 µM with NCI-H226 lung; over 100 µM with ACHN renal; over 100 µM with MDA-MB-231 breast; over 100 µM in the experiment with IGROV1 ovarian; over 100 µM in the experiment with MOLT-4 leukemia; 78.4 µM in the experiment with RPMI-8226 leukemia. In addition, the TGI in the experiment on U251 CNS, with EKVX NSCLC, with HCT-15 colon and with KM12 colon was over 100 µM each time.

With `CCCCCCNCc1cc(C(C)(C)C)cc(CNCCCCCC)c1O`, the GI50 is 1.69 µM in the experiment on NCI-H226 lung; 1.62 µM with ACHN renal; 1.35 µM in the experiment on MDA-MB-231 breast; 1.76 µM in the experiment with IGROV1 ovarian; 1.84 µM with MOLT-4 leukemia; 1.96 µM in the experiment with RPMI-8226 leukemia. In addition, the GI50 with U251 CNS is 1.57 µM; in the experiment with EKVX NSCLC, 1.55 µM; in the experiment with HCT-15 colon, 1.63 µM; in the experiment with KM12 colon, 1.82 µM. Moreover, the TGI in the experiment on NCI-H226 lung was 3.36 µM; in the experiment on ACHN renal, 2.97 µM; in the experiment with MDA-MB-231 breast, 2.7 µM; with IGROV1 ovarian, 3.36 µM; in the experiment with MOLT-4 leukemia, 3.84 µM; in the experiment with RPMI-8226 leukemia, 4.05 µM. The TGI in the experiment on U251 CNS worked out at 2.91 µM; with EKVX NSCLC it was 2.96 µM; in the experiment on HCT-15 colon, 3.1 µM; in the experiment with KM12 colon, 3.3 µM.

`COC(=O)c1cc(OC)c(OC)c(OC)c1-c1cc2c(cc1C=O)OCO2`: the TGI in the experiment with NCI-H226 lung, with ACHN renal, in the experiment on MDA-MB-231 breast, in the experiment with IGROV1 ovarian, in the experiment with MOLT-4 leukemia and in the experiment with RPMI-8226 leukemia was over 10 µM in each case. In addition, the TGI in the experiment on U251 CNS, in the experiment with EKVX NSCLC, in the experiment with HCT-15 colon and in the experiment on KM12 colon was over 10 µM in each case.

`CN(C)c1cccc(F)c1C(=O)NC(=O)Nc1ccc(Cl)cc1`: the TGI was over 100 µM in the experiment with NCI-H226 lung; over 100 µM in the experiment with ACHN renal; over 72.1 µM in the experiment on MDA-MB-231 breast; over 100 µM with IGROV1 ovarian; over 100 µM in the experiment with MOLT-4 leukemia; over 36.6 µM with RPMI-8226 leukemia. Also, the TGI with U251 CNS is over 100 µM; in the experiment with EKVX NSCLC, over 100 µM; in the experiment with HCT-15 colon it was over 31.5 µM; in the experiment on KM12 colon, over 100 µM.

As to `O=C1c2cccnc2C(=O)c2c1c(C(=O)OCCCN1CCCCC1)c1ccccn21`, the GI50 in the experiment on NCI-H226 lung is under 0.01 µM; with ACHN renal, under 0.01 µM; with MDA-MB-231 breast, 0.717 µM; with IGROV1 ovarian, 0.0309 µM; in the experiment on MOLT-4 leukemia, 0.1 µM; with RPMI-8226 leukemia, 0.0609 µM. Further, the GI50 is under 0.01 µM in the experiment with U251 CNS, 0.0351 µM in the experiment on EKVX NSCLC, 0.01 µM with HCT-15 colon and under 0.0185 µM in the experiment with KM12 colon. Also, the TGI in the experiment on NCI-H226 lung is 0.0318 µM; with ACHN renal, 0.0171 µM; with MDA-MB-231 breast, 13.9 µM; in the experiment on IGROV1 ovarian it was 0.686 µM; in the experiment on MOLT-4 leukemia, over 36.4 µM; with U251 CNS it was 0.0372 µM. Besides, the TGI was determined as 0.253 µM in the experiment with EKVX NSCLC, 0.422 µM in the experiment with HCT-15 colon and 0.165 µM in the experiment on KM12 colon.

`O=C1CC/C(=C/COc2cc(=O)oc3ccccc23)O1`: the GI50 in the experiment with NCI-H226 lung was 17.9 µM; with ACHN renal, 1.29 µM; with MDA-MB-231 breast, 11.5 µM; in the experiment on IGROV1 ovarian it was 5.05 µM; in the experiment on MOLT-4 leukemia, 3.78 µM; with RPMI-8226 leukemia it was 2.02 µM. Besides, the GI50 in the experiment on U251 CNS was 11 µM; in the experiment on EKVX NSCLC, 17.9 µM; with HCT-15 colon it was 5.28 µM; in the experiment on KM12 colon it was 7.14 µM. Moreover, the TGI in the experiment on NCI-H226 lung is 73.5 µM; in the experiment on ACHN renal it was 2.55 µM; in the experiment on MDA-MB-231 breast it was 24.4 µM; with IGROV1 ovarian, 19.5 µM; in the experiment on MOLT-4 leukemia, over 100 µM; with RPMI-8226 leukemia, 8.07 µM. The TGI in the experiment on U251 CNS came to 23.4 µM; in the experiment on EKVX NSCLC, 40.1 µM; with HCT-15 colon, 18.4 µM; in the experiment with KM12 colon, 25.1 µM.

Take `NC(CSSCC(N)C(=O)O)C(=O)O` (centres undefined): the GI50 with NCI-H226 lung, with ACHN renal, in the experiment with MDA-MB-231 breast, in the experiment with IGROV1 ovarian, in the experiment with MOLT-4 leukemia and with RPMI-8226 leukemia was over 100 µM in each case. Further, the GI50 with U251 CNS, in the experiment on EKVX NSCLC, in the experiment with HCT-15 colon and with KM12 colon was over 100 µM in each case. In addition, the TGI with NCI-H226 lung, in the experiment on ACHN renal, with MDA-MB-231 breast, in the experiment with IGROV1 ovarian, in the experiment on MOLT-4 leukemia and with RPMI-8226 leukemia was over 100 µM throughout. Also, the TGI with U251 CNS, in the experiment on EKVX NSCLC, with HCT-15 colon and in the experiment with KM12 colon was over 100 µM throughout.

In the case of `CN(CCCCCl)P(=O)(OCc1ccc([N+](=O)[O-])o1)OCC1OC(n2cnc([N+](=O)[O-])c2N)C(O)C1O` (centres undefined), the GI50 in the experiment on NCI-H226 lung, in the experiment with ACHN renal, with MDA-MB-231 breast, in the experiment on IGROV1 ovarian, in the experiment with MOLT-4 leukemia and with RPMI-8226 leukemia was over 100 µM each time. For the same molecule, the GI50 in the experiment with U251 CNS was over 100 µM; with EKVX NSCLC, over 100 µM; in the experiment on HCT-15 colon it was over 100 µM; in the experiment with KM12 colon, 90.7 µM. Further, the TGI in the experiment with NCI-H226 lung, with ACHN renal, with MDA-MB-231 breast, with IGROV1 ovarian, in the experiment with MOLT-4 leukemia and with RPMI-8226 leukemia was over 100 µM in each case. The TGI with U251 CNS, with EKVX NSCLC, in the experiment on HCT-15 colon and in the experiment on KM12 colon was over 100 µM each time.

Source of the values: PubChem BioAssay (NCI).
